In patent publication US9480664B2, “Compositions and methods for treating cancer” (Augusta University Research Institute, Inc., priority 2014, dated 2016):

Key:
[1] = tested on: B6 mice subjected to ischemic stroke; test: Ischemic stroke in B6 mice supplemented with 20-OH PGE2; assay type: in vivo, mouse; details: 20-OH PGE2 250 ng/h via osmotic pump, 7 days, vs vehicle
Method: B6 mice were divided into two groups: one supplemented with 20-OH PGE2 (250 ng/h in an osmotic pump) and one given vehicle. After one week of treatment, the mice were subjected to ischemic stroke.
Although 20-OH PGE2 elicits beneficial protective effects in brain endothelial cells under OGD/Rep, the precise role of 20-OH PGE2 in ischemic stroke is still to be defined. To determine the effects of 20-OH PGE2 supplementation on stroke damage, B6 mice were treated with 20-OH PGE2 (Cayman) (administered via an osmotic pump (Alzet) at a dose of 250 ng/h) or vehicle for 7 days. The effects of 20-OH PGE2 on infarct size and neurological deficit after ischemic stroke were examined.

[2] = tested on: 20-HETE production in MC38 cells; test: 20-HETE production in cultured MC38 cells (LC/MS/MS); assay type: cell-based, mouse; details: HET0016 1 μM vs vehicle; FIG. 1C
Method: (§1) MC38 cells were maintained in complete medium consisting of DMEM supplemented with 10% heat-inactivated FBS, […] streptomycin, and 100 U/ml penicillin in a humidified incubator at 37° C. with 5% CO2. Sub-confluent cultured cells were harvested by washing T-75 flasks two times with Ca^2+- and Mg^2+-free Earl's balanced salts, followed by 2 min incubation with 0.25% trypsin-EDTA (Life Technologies, Grand Island, N.Y.) at 37° C. A human cerebral microvascular endothelial cell line (HCMECL) was used in the studies (University of Georgia, Athens, Ga.). Primary rat brain microvascular endothelial cells (RBMEC) were prepared as described previously (Prakash, et al., Diabetes 61:97 1533-1542 (2012)). HCMECL and RBMEC were maintained in MCDB-131 complete medium (VEC Technologies, Rensselaer, N.Y.).
(§2) MC38 cells were collected using 0.25% trypsin-EDTA. After centrifugation, a cell pallet was re-suspended in 300 μl of PBS. […] The concentrations of 20-HETE in media and cell lysates were determined by Liquid Chromatography—Tandem Mass Spectrometry (LC/MS/MS) using 15(S)-HETE-d8 as an internal standard as described previously (Chen, et al., Prostaglandins Other Lipid Mediat 104-105:42-48 (2013)). […] The concentrations of PGE2 in media and cell lysates were determined by an ELISA kit (Cayman Chemical, Ann Arbor, Mich.) according to the manufacturer's instructions.

MC38 cells [3] = test: MC38 cell growth by counting cell numbers; assay type: cell-based, mouse; details: single agent 100 nM to 10 μM, 48 h, serum-free medium + EGF 200 ng/ml; FIG. 3A/3B
Method: For cell growth experiments, cells were seeded onto 6-well plates at a density of 2.5×10^5 cells/well. […] After 48 h of treatment, cells were collected using 0.25% trypsin-EDTA and counted using a hemocytometer.

MC38 cells [4] = test: MC38 cell proliferation by BrdU ELISA assay; assay type: cell-based, mouse; details: 48 h
Method: MC38 cells were seeded at a density of 5×10^3 cells/well in 10% FBS/DMEM in 96-well plates. […] BrdU ELISA assay was done using an ELISA kit (CycLex Co., Nagano, Japan). Briefly, 3 h before assay, BrdU (10 μM final concentration) was added to the 96-well plates containing MC38 cells given different incubation conditions. After 3 h of incubation, the culture medium was removed, and fixed with Fixing/Denaturing solution (200 μl/well) at room temperature for 30 min. After removing Fixing/Denaturing solution, plates were incubated with monoclonal anti-BrdU antibody (50 μl/well) at room temperature for 1 h. Plates were washed five times with Wash buffer (200 μl/well), then incubated with the secondary antibody (50 μl/well) at room temperature for 1 h. After removing the secondary antibody and doing a second wash procedure, plates were incubated with Substrate Reagent (50 μl/well) at room temperature for 15 min in the dark. The reaction was then stopped by adding Stop Solution (50 μl/well). The absorbance in each well was measured using a Tecan GENios Plus microplate reader at dual wavelengths of 450/540 nm.

plasma eicosanoids = test: Plasma 20-HETE and other eicosanoids in MC38 tumor mice (LC/MS/MS); assay type: in vivo, mouse; details: 3 weeks; for Plasma 20-HETE levels / Plasma levels of EETs/DHETs, 5-HETE, 8-HETE, 11-HETE, 15-HETE: rofecoxib 50 mg/l, HET0016 5 mg/kg/day i.p. given with rofecoxib, FIG. 6A
Method: After 3 weeks of different treatments, MC38 tumor mice were anesthetized with 2% isoflurane delivered by an anesthesia apparatus. About 0.6 ml of venous blood was collected from mice using a 1-ml syringe containing sodium citrate. The samples were centrifuged at 2,400×g for 15 min to obtain platelet-free plasma. To stabilize eicosanoids in plasma samples, 10 μl combinations of antioxidants (EDTA (0.2 mg/l), butylated hydroxytoluene (0.2 mg/l), and triphenyphosphine (2 mg/l)) were added to each plasma sample. The plasma samples were stored at −80° C. until LC/MS/MS analysis. Plasma samples were spiked with 10 ng of 15(S)-HETE-d8, applied to preconditioned SEP Pak C18 cartridges (100 mg adsorbent, Waters), and washed with water followed by hexane. Eicosanoids were eluted with 500 μl of ethyl acetate-hexane (3:1). The eluate was dried under nitrogen and reconstituted in methanol: 25 mM aqueous ammonium acetate (7:3). The extracted and reconstituted sample was subjected to HPLC (Shimadzu Prominence XR system) on a Max-RP C18 column (2×150 mm, 3 μu, Phenomenex) isocratically eluted with methanol:13 mM aqueous ammonium acetate (8:2) at a flow rate of 0.4 ml/min. The eluent was monitored for 20-HETE, EETs (5,6-EET, 8,9-EET, 11,12-EET, 14,15-EET), DHETs (5,6-DHET, 8,9-DHET, 11,12-DHET, 14,15-DHET), 5-HETE, 8-HETE, 11-HETE, 15-HETE, PGJ2, PGE2, TXB2, and 15keto-PGE2 by mass spectrometer (QTRAP5500, ABSCIEX) in the negative ion mode using Multiple Reaction Monitoring under optimized conditions. 15(S)-HETE-d8 was used as the internal standard for recovery and quantitation. The concentrations of eicosanoids were determined by comparing the ratio of ion intensity of each eicosanoid versus that of 15(S)-HETE-d8, as described previously (Chen, et al., Prostaglandins Other Lipid Mediat 104-105:42-48 (2013); Maddipati, et al., Prostaglandins Other Lipid Mediat 94:59-72 (2011)).

subcutaneous MC38 tumors = test: Tumor growth in MC38 colon tumor-bearing C57BL/6J mice; assay type: in vivo, mouse; details: HET0016 5 or 10 mg/kg/day i.p.; rofecoxib 50 mg/l in drinking water; combination compared with rofecoxib alone; FIG. 5
Method: 8-week-old male C57BL/6J mice were subcutaneously injected with MC38 cells (1.4×10^6 cells/mouse) to induce colon tumor. […] All treatments were done for 21 days. Rofecoxib (50 mg/l) was suspended in drinking water containing 1% (vol/vol) PEG 400 (Sigma-Aldrich) and 0.5% (wt/vol) 2-hydroxypropyl-β-cyclodextrin (Sigma-Aldrich). The formula and dose of rofecoxib were prepared according to a previous publication (Liu, et al., Proc Natl Acad Sci USA 107: 17017-17022 (2010)). Tumor growth rates were monitored by measuring tumor volume with a sliding caliper on day 9 or day 18 after cell-implantation. The volumes of tumors were calculated from the major dimension (L) and minor dimension (S), using the equation: tumor volume=L×(S)2/2 as described previously (Konson, et al., Cancer Gene Ther 11: 830-840 (2004)).

[5] = tested on: PGE2 production in MC38 cells; test: PGE2 production in MC38 cells (PGE2 ELISA); assay type: cell-based, mouse; details: dose response; FIG. 2C
Method: as §1, §2

[6] = tested on: MC38 tumor mice subjected to thromboembolic stroke; test: Thromboembolic ischemic stroke in MC38 tumor mice: neurovascular injury and functional outcome; assay type: in vivo, mouse
Excerpt: Age-matched non-tumor mice were usedas control. At the end of the treatment period, mice were subjected to thromboembolic stroke. Under isoflurane anesthesia, the right common carotid artery, the right external carotid artery (ECA), and the right internal carotid artery were exposed through a middle incision on the ventral side of the neck. A PE 10 catheter containing a fibrin-rich clot was gently inserted from the ECA stump into the distal internal carotid artery just proximal to the origin of the middle cerebral artery (MCA). Each clot (˜1 cm), prepared from a donor mouse, was injected with 75 μl of sterile PBS; after 2 min, the catheter was withdrawn as described previously (Hoda, et al., Exp Transl Stroke Med 3:16 (2011)). Occlusion was confirmed by a ≧70% drop in cerebral blood flow as compared to the pre-ischemic value. The success rate of thromboembolic MCA occlusion was 95% based on changes in cerebral blood flow. At day 3 after surgery, mice were first evaluated for functional outcome, then sacrificed for evaluation of neurovascular injury including infarct size and bleeding. Extracted brains were analyzed for infarct size in coronal slices of 2 mm thickness, labeled A-G, front to back. Hemorrhagic transformation (HT), secondary bleeding into the brain after ischemic stroke was evaluated by the presence of visible macroscopic bleeding and measured in a binary fashion: yes or no. Number of animals that had HT was reported per group. 2, 3, 5-Triphenyltetrazolium chloride (TTC), a mitochondria stain, was used to outline the infarct area. The captured images were numerically labeled and analyzed using specialized KS300 software. Infarct size was expressed as a percentage of the contralateral hemisphere. Neurologic deficits in mice given different treatments were assessed at 24 h and 72 h after stroke, using a 5-point scale for scoring: 0, no deficit; 1, forelimb flexion deficit on contralateral side; 2, decreased resistance to lateral push and torso turning to the ipsilateral side when held by tail; 3, significant circling to the affected side and reduced capability to bear weight on the affected side; 4, rarely moved spontaneously and preferred to stay at rest.

[7] = Water intake and body weight of treated mice; assay type: in vivo, mouse; details: rofecoxib 50 mg/l in drinking water, n=5
Method: In a complementary experiment, the water intake and body weight of mice treated with water, vehicle, and rofecoxib (50 mg/l) was determined. Neither vehicle (3.02±0.17 vs. 3.16±0.16 ml/24 h/mouse, n=5) nor rofecoxib (3.07±0.1 vs. 3.16±0.16 ml/24 h/mouse, n=5) treatment affected water intake. Likewise, there was no significant change of body weight among water (24±1.63 g/mouse, n=5), vehicle (23.8±1.1 g/mouse, n=5), and rofecoxib (24.5±1.0 g/mouse, n=5) group.

Cyp4a = Cyp4a expression in liver and kidney of MC38 tumor mice (Western blot); assay type: in vivo, mouse; details: 3-week rofecoxib treatment, FIG. 6C

Row | Structure (SMILES) | Infarct size after ischemic stroke ([1]; FIG. 10A) | Neurological deficits after ischemic stroke ([1]; FIG. 10B) | 20-HETE production and secretion in MC38 cell media [2] | MC38 cell growth (cell number/well) (MC38 cells [3]) | BrdU incorporation into MC38 cells (MC38 cells [4]; 100 nM to 10 μM, serum-free medium + EGF 200 ng/ml, FIG. 4A) | Plasma 20-HETE levels (plasma eicosanoids) | Plasma levels of EETs/DHETs, 5-HETE, 8-HETE, 11-HETE, 15-HETE (plasma eicosanoids) | Plasma PGJ2, PGE2, TXB2 and 15 keto-PGE2 levels (plasma eicosanoids; HET0016 5 mg/kg/day i.p., FIG. 6B) | Tumor size on day 9 post implantation (subcutaneous MC38 tumors) | Tumor size on day 18 post-implantation (subcutaneous MC38 tumors) | PGE2 production in MC38 cells [5] | Mortality after ischemic stroke ([6]; 3 weeks treatment, rofecoxib 50 mg/l, HET0016 5 mg/kg/day i.p.) | Animals that developed HT ([6]; C57BL/6J, mouse, in vivo, 3 weeks) | Functional outcome (neurological deficit score) ([6]; mouse, in vivo) | Infarct size ([6]; rofecoxib compared to control mice, combination compared to rofecoxib, FIG. 8B) | BrdU incorporation into MC38 cells at 1 μM (MC38 cells [4]; 1 μM (combination 1 μM each, compared with rofecoxib alone), FIG. 4B/4C) | Body weight [7] | Water intake ([7]; water group 3.16±0.16) | cyp4a expression in the liver and kidney (Cyp4a)
1 | O=C(O)CCC/C=C\C[C@H]1C(=O)C[C@@H](O)[C@@H]1/C=C/[C@@H](O)CCCCCO [20-OH PGE2] | reduced | reduced | – | – | – | – | – | – | – | – | – | – | – | – | – | – | – | – | –
2 | CCCCc1ccc(N=CNO)c(C)c1 [HET0016, N-Hydroxy-N′-(4-butyl-2-methylphenyl)formamidine] | – | – | effectively blocked 20-HETE production and secretion | inhibited cell growth | inhibited the incorporation of BrdU in a concentration dependent manner | selectively reduced plasma 20-HETE levels | without affecting | did not affect | did not affect tumor size | dose-dependently reduced tumor size | – | – | – | – | – | – | – | – | –
3 | CS(=O)(=O)c1ccc(C2=C(c3ccccc3)C(=O)OC2)cc1 [rofecoxib] | – | – | – | inhibited cell growth | – | selectively increased 20-HETE plasma levels | no significant changes | – | significantly reduced tumor size | significantly reduced tumor size | dose-dependently inhibited PGE2 production | ~30% | 4 out of the 5 | neurological deficit scores were higher | reduced the size of infarcts | significantly inhibited BrdU incorporation | 24.5±1.0 g/mouse | 3.07±0.1 ml/24 h/mouse | had no effect on cyp4a expression
